Test results from US20220259193A1, “KCNT1 INHIBITORS AND METHODS OF USE” (Praxis Precision Medicines, Inc., priority 2019, published 2022).

Target: T1, KCNT1 (KNa1.1, Slack) (Homo sapiens, UniProt Q5JUK3)
T1 construct: expressed in transfected cells; host or cells: HEK-TREX (tetracycline-inducible HEK cell line)
T1 sequence (Q5JUK3 1-1230): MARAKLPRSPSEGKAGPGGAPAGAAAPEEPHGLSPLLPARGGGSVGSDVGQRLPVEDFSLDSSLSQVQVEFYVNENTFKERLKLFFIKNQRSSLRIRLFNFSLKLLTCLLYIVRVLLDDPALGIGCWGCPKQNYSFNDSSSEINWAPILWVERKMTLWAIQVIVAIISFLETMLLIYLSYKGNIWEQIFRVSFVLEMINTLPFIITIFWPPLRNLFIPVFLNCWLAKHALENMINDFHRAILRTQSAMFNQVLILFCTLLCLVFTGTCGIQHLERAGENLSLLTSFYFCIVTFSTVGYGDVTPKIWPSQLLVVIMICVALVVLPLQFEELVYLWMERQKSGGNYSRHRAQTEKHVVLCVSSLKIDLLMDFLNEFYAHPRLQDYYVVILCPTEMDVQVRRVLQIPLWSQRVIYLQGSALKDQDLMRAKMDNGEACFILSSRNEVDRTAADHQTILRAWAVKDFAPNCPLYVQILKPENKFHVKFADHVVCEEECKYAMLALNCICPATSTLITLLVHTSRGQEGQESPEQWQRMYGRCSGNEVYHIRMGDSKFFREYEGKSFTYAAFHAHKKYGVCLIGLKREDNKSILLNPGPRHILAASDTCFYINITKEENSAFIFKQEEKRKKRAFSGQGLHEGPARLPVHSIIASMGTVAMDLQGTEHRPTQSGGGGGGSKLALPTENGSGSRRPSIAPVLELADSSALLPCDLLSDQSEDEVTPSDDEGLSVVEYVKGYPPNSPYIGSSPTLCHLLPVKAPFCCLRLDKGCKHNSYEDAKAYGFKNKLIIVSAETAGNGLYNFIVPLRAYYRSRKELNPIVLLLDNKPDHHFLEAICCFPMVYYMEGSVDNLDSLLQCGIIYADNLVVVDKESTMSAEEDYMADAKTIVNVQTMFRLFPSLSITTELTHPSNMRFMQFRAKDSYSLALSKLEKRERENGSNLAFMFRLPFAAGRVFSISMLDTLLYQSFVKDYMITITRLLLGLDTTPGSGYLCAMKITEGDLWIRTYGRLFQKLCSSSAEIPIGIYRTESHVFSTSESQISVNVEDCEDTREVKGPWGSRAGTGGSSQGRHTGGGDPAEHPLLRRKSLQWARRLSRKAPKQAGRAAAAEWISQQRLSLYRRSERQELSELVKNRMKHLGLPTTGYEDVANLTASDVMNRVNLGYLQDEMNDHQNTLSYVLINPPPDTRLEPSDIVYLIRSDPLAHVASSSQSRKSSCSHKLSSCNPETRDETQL
Assay: KCNT1 patch clamp assay (SyncroPatch 384PE automated patch clamp)
Format: cell-based
Conditions: tetracycline inducible HEK-TREX cell line; perforated patch; step from −80 mV to 0 mV; room temperature; read-out: KCNT1-WT IC50
Method: KCNT1—Patch Clamp Assay Inhibition of KCNT1 (KNa1.1, Slack) was evaluated using a tetracycline inducible cell line (HEK-TREX). Currents were recorded using the SyncroPatch 384PE automated, patch clamp system. Pulse generation and data collection were performed with PatchController384 V1.3.0 and DataController384 V1.2.1 (Nanion Technologies). The access resistance and apparent membrane capacitance were estimated using built-in protocols. Current were recorded in perforated patch mode (10 μM escin) from a population of cells. […] The cells were allowed to recover in the cell hotel prior to experimentation. Currents were recorded at room temperature. […] The extracellular solution was used as the wash, reference and compound delivery solution. […] Escin is made at a 5 mM stock in water, aliquoted, and stored at −20° C. The compound plate was created at 2× concentrated in the extracellular solution. The compound was diluted to 1:2 when added to the recording well. The amount of DMSO in the extracellular solution was held constant at the level used for the highest tested concentration. A holding potential of −80 mV with a 100 ms step to 0 mV was used. […] The average mean current from 3 sweeps was calculated and the % inhibition of each compound was calculated. The % Inhibition as a function of the compound concentration was fit with a Hill equation to derive IC50, slope, min and max parameters.

IC50, 1 to 20 µM:
CC(NC(=O)c1cc(C(F)(F)F)nn1C)c1nc(-c2cccc(O)c2)no1 (centres unmarked) [Compound 186, N-(1-(3-(3-hydroxyphenyl)-1,2,4-oxadiazol-5-yl)ethyl)-1-methyl-3-(trifluoromethyl)-1H-pyrazole-5-carboxamide]
Cn1nc(C(F)(F)F)cc1C(=O)NC(CNS(C)(=O)=O)c1nc(-c2cccc(F)c2)no1 (centres unmarked) [Compound 169]
C[C@@H](NC(=O)OC(C)(C)C)c1nc(-c2ccnc(C(F)(F)F)c2)no1 [Compound 296, tert-butyl (R)-(1-(3-(2-(trifluoromethyl)pyridin-4-yl)-1,2,4-oxadiazol-5-yl)ethyl)carbamate]
C[C@H](NC(=O)OC(C)(C)C)c1nc(-c2cccc(F)c2)no1 [Compound 281, tert-butyl N-[(1S)-1-[3-(3-fluorophenyl)-1,2,4-oxadiazol-5-yl]ethyl]carbamate]
C[C@H](NC(=O)c1cc(C(F)(F)F)nn1C)c1nc(-c2ccnc(C#N)c2)no1 [Compound 267, (S)—N-(1-(3-(2-cyanopyridin-4-yl)-1,2,4-oxadiazol-5-yl)ethyl)-1-methyl-3-(trifluoromethyl)-1H-pyrazole-5-carboxamide]
Cc1cccc(-c2noc(C(C)NC(=O)c3cc(C)nn3C(C)(C)C)n2)c1 (centres unmarked) [Compound 11]
C[C@H](NC(=O)c1cc(C(F)(F)F)nn1C(F)F)c1nc(-c2cccc(Cl)c2)no1 (single isomer, unassigned) [Compound 83]
C[C@H](NC(=O)OC(C)(C)C)c1nc(-c2ccnc(OC3CC3)c2)no1 [Compound 292, tert-butyl (S)-(1-(3-(2-cyclopropoxypyridin-4-yl)-1,2,4-oxadiazol-5-yl)ethyl)carbamate]
C[C@@H](NC(=O)OC(C)(C)C)c1nc(-c2cccc(F)c2)no1 [Compound 282, tert-butyl (R)-(1-(3-(3-fluorophenyl)-1,2,4-oxadiazol-5-yl)ethyl)carbamate]
Cn1nc(C2CC2)cc1C(=O)NC(c1ccccc1)c1nc(-c2cccc(F)c2)no1 (centres unmarked) [Compound 51]
C[C@H](NC(=O)OC(C)(C)C)c1nc(-c2ccnc(C(F)F)c2)no1 [Compound 291, tert-butyl (S)-(1-(3-(2-(difluoromethyl)pyridin-4-yl)-1,2,4-oxadiazol-5-yl)ethyl)carbamate]
Cc1nn(C(C)C)cc1C(=O)N[C@@H](C)c1nc(-c2cccc(F)c2)no1 [Compound 95]

IC50, ≤ 1 µM:
C[C@H](NC(=O)c1ccnn1CC1CC1)c1nc(-c2ccnc(C3CCCC3)c2)no1 [Compound 309, (S)—N-(1-(3-(2-cyclopentylpyridin-4-yl)-1,2,4-oxadiazol-5-yl)ethyl)-1-(cyclopropylmethyl)-1H-pyrazole-5-carboxamide]
Cc1nn(-c2ccc(F)cc2)cc1C(=O)N[C@@H](C)c1nc(-c2cccc(F)c2)no1 [Compound 154]
C[C@H](NC(=O)OC1CCCC1)c1nc(-c2ccnc(C3CC3)c2)no1 [Compound 276]
CC[C@@H](NC(=O)c1cc(C(F)(F)F)nn1C)c1nc(-c2ccnc(C3CC3)c2)no1 [Compound 266, N-[(1R)-1-[3-(2-cyclopropyl-4-pyridyl)-1,2,4-oxadiazol-5-yl]propyl]-2-methyl-5-(trifluoromethyl)pyrazole-3-carboxamide]
Cc1nn(C(C)C)cc1C(=O)NC(C)c1nc(-c2ccc(Cl)cc2)no1 (centres unmarked) [Compound 97]
CC[C@H](NC(=O)c1cc(C(F)(F)F)nn1C)c1nc(-c2ccnc(C(F)(F)F)c2)no1 [Compound 236, (S)-1-methyl-3-(trifluoromethyl)-N-(1-(3-(2-(trifluoromethyl)pyridin-4-yl)-1,2,4-oxadiazol-5-yl)propyl)-1H-pyrazole-5-carboxamide]
Cc1cc(C(=O)N[C@@H](C)c2nc(-c3ccnc(C4CC4)c3)no2)n(C)n1 [Compound 227, (S)—N-(1-(3-(2-cyclopropylpyridin-4-yl)-1,2,4-oxadiazol-5-yl)ethyl)-1,3-dimethyl-1H-pyrazole-5-carboxamide]
C[C@H](NC(=O)c1cc(C(F)F)nn1C)c1nc(-c2ccnc(C3CC3)c2)no1 [Compound 229, (S)—N-(1-(3-(2-cyclopropylpyridin-4-yl)-1,2,4-oxadiazol-5-yl)ethyl)-3-(difluoromethyl)-1-methyl-1H-pyrazole-5-carboxamide]
C[C@H](NC(=O)OC(C)(C)C)c1nc(-c2ccnc(C3CC3)c2)no1 [Compound 288, tert-butyl (S)-(1-(3-(2-cyclopropylpyridin-4-yl)-1,2,4-oxadiazol-5-yl)ethyl)carbamate]
C[C@@H](NC(=O)c1cc(C(F)(F)F)nn1C(F)F)c1nc(-c2cccc(Cl)c2)no1 (single isomer, unassigned) [Compound 82]
Cc1nn(C(C)C)cc1C(=O)N[C@@H](C)c1nc(-c2cc(F)cc(Cl)c2)no1 [Compound 91]
C[C@H](NC(=O)c1cc(C(F)(F)F)nn1C)c1nc(-c2ccnc(N3CCCCC3)c2)no1 (single isomer, unassigned) [Compound 209]
C[C@H](NC(=O)c1cc(C(F)(F)F)nn1C)c1nc(-c2ccnc(OCC(F)F)c2)no1 [Compound 211, (S)—N-(1-(3-(2-(2,2-difluoroethoxy)pyridin-4-yl)-1,2,4-oxadiazol-5-yl)ethyl)-1-methyl-3-(trifluoromethyl)-1H-pyrazole-5-carboxamide]
CC(NC(=O)c1cc(C2CC2)nn1C)c1nc(-c2cccc(C(F)(F)F)c2)no1 (centres unmarked) [Compound 12]
CO[C@@H](C)[C@@H](NC(=O)c1cc(C(F)(F)F)nn1C)c1nc(-c2cccc(F)c2)no1 [Compound 138]

IC50, ≥ 20 µM:
Cc1cccc(-c2noc(C(C)NC(=O)c3cnn(C(C)C)c3C)n2)c1 (centres unmarked) [Compound 59]
C[C@H](NC(=O)c1cc(C(F)(F)F)nn1C)c1nc(-c2ccnc(CN(C)C)c2)no1 [Compound 260, (S)—N-(1-(3-(2-((dimethylamino)methyl)pyridin-4-yl)-1,2,4-oxadiazol-5-yl)ethyl)-1-methyl-3-(trifluoromethyl)-1H-pyrazole-5-carboxamide]
C[C@H](NC(=O)c1cc(C2CC2)nn1C)c1nc(-c2cccc(F)c2)no1 (single isomer, unassigned) [Compound 94]
COCc1cc(-c2noc([C@H](C)NC(=O)OC(C)(C)C)n2)ccn1 [Compound 289, tert-butyl (S)-(1-(3-(2-(methoxymethyl)pyridin-4-yl)-1,2,4-oxadiazol-5-yl)ethyl)carbamate]
Cn1nc(C(F)(F)F)cc1C(=O)NC(CC(=O)N1CC(O)C1)c1nc(-c2cccc(F)c2)no1 (centres unmarked) [Compound 124]
Cc1nn(C(C)C)cc1C(=O)N[C@@H](C)c1nc(-c2cccc(C#N)c2)no1 [Compound 85]
CC(=O)NC[C@H](NC(=O)c1cc(C(F)(F)F)nn1C)c1nc(-c2cccc(F)c2)no1 [Compound 134]
CC(NC(=O)c1cc(C(F)(F)F)nn1C)c1nc(-c2cccc(C(=O)N(C)C)c2)no1 (centres unmarked) [Compound 183, N-(1-(3-(3-(dimethylcarbamoyl)phenyl)-1,2,4-oxadiazol-5-yl)ethyl)-1-methyl-3-(trifluoromethyl)-1H-pyrazole-5-carboxamide]
